Measurements reported in patent publication US4497816A, “7-(4-Pyridyl)-1,8-naphthyridine derivatives and their antibacterial compositions” (Dainippon Pharmaceutical Co., Ltd., priority 1982, dated 1985).
Values after ≈ are worked out from the molar mass of the structure shown.

Columns and labels:
[1] = test system: Escherichia coli P-5101; assay: In vitro antibacterial activity (MIC), agar dilution method; format: cell-based; settings: P5101
Method: (§1) *^3 In vitro antibacterial activity
(§2) The minimum inhibitory concentrations (MIC:
(§3) μg/ml) shown in Table 1 were determined according
(§4) to the agar dilution method recommended by Japan
(§5) Society of Chemotherpy (1980)

[2] = test system: Staphylococcus aureus No. 50774; assay: as above; format: cell-based
Method: as §1, §2, §3, §4, §5

[3] = test system: Pseudomonas aeruginosa No. 12; assay: as above; format: cell-based
Method: as §1, §2, §3, §4, §5

[4] = test system: Escherichia coli P-5101; assay: In vivo efficacy against the systemic infections in mice (Escherichia coli); design: species or system mice (male ddY); settings: P5101; Escherichia coli P-5101, intraperitoneal infection; oral, twice, about 5 minutes and 6 hours after infection
Method: (§6) Compounds 1, A and NA were each suspended in a 0.2%
(§7) aqueous solution of sodium carboxymethylcellulose.
(§8) Each of the solutions was orally administered to
(§9) mice infected with each of the test organisms under
(§10) the conditions described below, and the median
(§11) effective dose (ED50) was calculated in accordance
(§12) with the Behrens-Kaerber method [Arch. Exp. Path.
(§13) Experimental conditions:
(§14) Mice: Male mice (ddY) weighing about 20 g
Escherichia coli P-5101
Intraperitoneal infection with about 9 × 10^6
(§15) cells per mouse suspended in trypto-soy
(§16) Twice, about 5 minutes and 6 hours after […]

[5] = test system: Staphylococcus aureus No. 50774; assay: In vivo efficacy against the systemic infections in mice (Staphylococcus aureus); design: species or system mice (male ddY); settings: 336 h; Staphylococcus aureus No. 50774, intravenous infection; oral, twice, about 5 minutes and 6 hours after infection; observed 14 days
Method: as §6, §7, §8, §9, §10, §11, §12, §13, §14
Staphylococcus aureus No. 50774
Intravenous infection with about 5 × 10^8
cells per mouse suspended in saline
Twice, about 5 minutes and 6 hours after
Staphylococcus aureus No. 50774-for 14 days

[6] = Acute oral toxicity in mice; settings: mouse, in vivo, female mice (ddY), deaths counted after 7 days
Method: *^5 Acute oral toxicity in mice
A suspension containing compound 1 in various
concentrations was orally given to female mice
(ddY) at a volume of 0.1 ml per 10 g of body weight.
The number of dead mice was counted after 7 days,
and the value of median lethal dose (LD50) was
calculated in accordance with the Behrens-Kaerber

[7] = test system: Pseudomonas aeruginosa No. 12; assay: In vivo efficacy against the systemic infections in mice (Pseudomonas aeruginosa); design: species or system mice (male ddY); settings: Pseudomonas aeruginosa No. 12, intraperitoneal infection; oral, twice, about 5 minutes and 6 hours after infection
Method: as §6, §7, §8, §9, §10, §11, §12, §13, §14
Pseudomonas aeruginosa No. 12
Intraperitoneal infection with about 5 × 10^3
as §15, §16

SMILES | MIC [1] [µg/mL] | MIC [2] [µg/mL] | MIC [3] [µg/mL] | ED50 [4] [mg/kg] | ED50 [5] [mg/kg] | LD50 at 168 h [6] [mg/kg] | ED50 [7] [mg/kg]
CCn1cc(C(=O)O)c(=O)c2cc(F)c(-c3ccncc3)nc21 [Compound 1, 1-Ethyl-6-fluoro-1,4-dihydro-4-oxo-7-(4-pyridyl)-1,8-naphthyridine-3-carboxylic acid] | 0.2 (≈ 0.638 µM) | 0.2 (≈ 0.638 µM) | 3.13 (≈ 9.99 µM) | 3.1 | 2.84 | > 2000 | 12.2
CCn1cc(C(=O)O)c(=O)c2ccc(-c3ccncc3)nc21 [Compound A, 1-ethyl-1,4-dihydro-4-oxo-7-(4-pyridyl)-1,8-naphthyridine-3-carboxylic acid] | 0.78 (≈ 2.64 µM) | 1.56 (≈ 5.28 µM) | 12.5 (≈ 42.3 µM) | 21 | 23.7 | – | > 100
CCn1cc(C(=O)O)c(=O)c2ccc(C)nc21 [NA, 1-ethyl-1,4-dihydro-7-methyl-4-oxo-1,8-naphthyridine-3-carboxylic acid] | 3.13 (≈ 13.5 µM) | 50 (≈ 215 µM) | 200 (≈ 861 µM) | – | 767 | – | 267
